Reference: patent US9309222B2, “Phenyl linked quinolinyl modulators of RORγt” (Janssen Pharmaceutica NV, priority 2012, dated 2016)
“And” between values parts separate entries of the source, which are not always exact repeats. Equal values may be shown once. Where a name gives a salt, the structure may show the parent alone.

What was measured:
[1] = target: T1, human RORγt ligand binding domain (RORγt LBD) (Homo sapiens, UniProt P51449); experiment: RORγt ThermoFluor assay (thermal shift, ligand binding affinity); settings: estimated from concentration response of thermal shift
T1 construct: His-tag (N); TurboTEV protease cleavage site (ENLYFQG) (N); made in house; host or cells: E. coli (pHIS1, modified pET vector)
T1 sequence (P51449 with tags, fused parts or gaps): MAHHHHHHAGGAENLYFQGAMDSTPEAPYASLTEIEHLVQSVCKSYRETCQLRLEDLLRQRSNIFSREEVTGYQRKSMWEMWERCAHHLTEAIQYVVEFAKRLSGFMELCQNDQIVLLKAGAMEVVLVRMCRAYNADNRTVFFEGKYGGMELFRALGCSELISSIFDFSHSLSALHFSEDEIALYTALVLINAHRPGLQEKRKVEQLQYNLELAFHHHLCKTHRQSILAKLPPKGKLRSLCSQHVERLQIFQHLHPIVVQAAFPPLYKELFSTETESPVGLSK
Outline: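 Thermal shift of 0.065 mg/mL RORγt with 60 μM 1,8-ANS in 100 mM Hepes pH 7.0, 10 mM NaCl, 2.5 mM GSH, 0.002% Tween-20. Compounds in 1:2 series from 10 mM DMSO stock. Dye fluorescence (500 nm emission) tracked versus temperature; ΔTm used to derive KD.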

[2] = target: T2, human RORγt LBD (Homo sapiens, UniProt P51449); experiment: RORγt reporter assay (GAL4-RORγt LBD luciferase in HEK293T cells); type: cell-based; settings: for IC50 / RORγt reporter Assay, % inhibition @ 6 μM: HEK293T cells; for IC50: 24 hours compound treatment; for inhibition at 6 µM: HEK-293T, read-out: RORγt reporter Assay, % inhibition @ 6 μM, HEK293T cells, 6 μM compound; for RORγt reporter Assay, % inhibition @ 6 μM: 6 μM compound
T2 construct: expressed in transfected cells
T2 sequence (P51449 258-518): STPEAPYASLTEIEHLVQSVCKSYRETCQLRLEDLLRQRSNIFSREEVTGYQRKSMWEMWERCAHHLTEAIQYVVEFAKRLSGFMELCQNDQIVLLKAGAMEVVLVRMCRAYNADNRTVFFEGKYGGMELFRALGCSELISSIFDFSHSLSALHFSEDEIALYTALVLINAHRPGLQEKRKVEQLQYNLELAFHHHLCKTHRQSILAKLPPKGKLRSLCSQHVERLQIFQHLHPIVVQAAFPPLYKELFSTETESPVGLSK
Outline: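 Read-out is the firefly-to-renilla luciferase ratio versus compound concentration, after 24 h compound exposure of cells in phenol-red-free DMEM/5% lipid-reduced FCS. Cells were HEK293T bulk-transfected with a GAL4-responsive firefly reporter (pGL4.31) and GAL4 DBD–wild-type human RORγt LBD fusion (pBIND, renilla as transfection/viability control).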

[3] = system: IL-17 production by CD4 T cells; experiment: Human Th17 assay (IL-17 production by CD4 T cells under Th17 differentiation conditions); type: cell-based; settings: IL-17 in supernatant after 3 days
Outline: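 Primary CD4+ T cells from healthy-donor PBMC, preincubated 1 h with titrated compound (0.2% DMSO), then activated with anti-CD3/CD28 beads plus anti-IL4, anti-IFNγ, IL1β, IL23, IL6, TGFβ and IL2.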

| Structure (SMILES) | Kd [1] [nM] | IC50 [2] | inhibition at 6 µM [2] [%] | IC50 ([3]; Homo sapiens, CD4+ T, 72 h) [nM] | IC50 [3] [nM] | RORγt reporter Assay, % inhibition @ 6 μM [2] [%] |
| --- | --- | --- | --- | --- | --- | --- |
| Cn1cncc1C(O)(c1ccc(Cl)cc1)c1ccc2nc(Cl)c(-c3ccccc3Cl)c(Cl)c2c1 (racemic) [Example 153a, (4-Chlorophenyl)(2,4-dichloro-3-(2-chlorophenyl)quinolin-6-yl)(1-methyl-1H-imidazol-5-yl)methanol] | 71 | 230 nM and ~400 nM | 96 | 480 | ~700 | – |
| CC(=O)N1CCCC(C(O)(c2cccnc2)c2ccc3nc(Cl)c(-c4ccccc4)c(Cl)c3c2)C1 (stereo not drawn) [Example 96, (1-Acetylpiperidin-3-yl)(2,4-dichloro-3-phenylquinolin-6-yl)pyridin-3-ylmethanol•TFA] | 29 | 370 nM | 98 | > 6000 | – | – |
| COc1ccc(C(O)(c2cccnc2)c2ccc3nc(N(C)C)c(-c4ccccc4)c(Cl)c3c2)cc1 (stereo not drawn) [Example 62, [4-Chloro-2-(dimethylamino)-3-phenylquinolin-6-yl](4-methoxyphenyl)pyridin-3-ylmethanol•TFA] | 420 | 250 nM | 98 | 700 | – | – |
| COc1nc2c(C)cc(C(O)(c3ccc(C(F)(F)F)nc3)c3cncn3C)cc2c(Cl)c1-c1ccc(OC(F)(F)F)cc1 (single isomer, unassigned) [Example 183c, (4-Chloro-2-methoxy-8-methyl-3-(4-(trifluoromethoxy)phenyl)quinolin-6-yl)(1-methyl-1H-imidazol-5-yl)(6-(trifluoromethyl)pyridin-3-yl)methanol] | 190 | 360 nM | – | – | 870 | 73 |
| CC(=O)N1CCC(C(O)(c2ccccc2)c2ccc3nc(C(F)(F)F)c(-c4ccccc4)c(C(F)(F)F)c3c2)CC1 (racemic) [Example 169a, 1-(4-(Hydroxy(phenyl)(3-phenyl-2,4-bis(trifluoromethyl)quinolin-6-yl)methyl)piperidin-1-yl)ethanone] | 8.1 | 72 nM | 96 | 66 | – | – |
| CN(C)c1nc2ccc(C(O)(c3ccc(Cl)cc3)c3cccnc3)cc2c(Cl)c1-c1ccccc1 (stereo not drawn) [Example 32, [4-Chloro-2-(dimethylamino)-3-phenylquinolin-6-yl](4-chlorophenyl)pyridin-3-ylmethanol•TFA] | 330 | 94 nM | 97 | 860 | – | – |
| CCN(C)c1nc2ccc(C(O)(c3ccncc3)c3cncn3C)cc2c(Cl)c1-c1ccccc1 (stereo not drawn) [Example 50, {4-Chloro-2-[ethyl(methyl)amino]-3-phenylquinolin-6-yl}(1-methyl-1H-imidazol-5-yl)pyridin-4-ylmethanol•TFA] | 5 | 7 nM and ~9 nM and < 50 nM | 105 | 36 | – | – |
| Cc1cc(C(O)(c2ccc(C(F)(F)F)nc2)c2cncn2C)cc2c(C#N)c(-c3cccc(F)c3)c(C#N)nc12 (single isomer, unassigned) [Example 176c, 3-(3-Fluorophenyl)-6-(hydroxy(1-methyl-1H-imidazol-5-yl)(6-(trifluoromethyl)pyridin-3-yl)methyl)-8-methylquinoline-2,4-dicarbonitrile] | 68 | 320 nM | – | 310 | – | 95 |
| CN(C)c1nc2ccc(C(O)(c3cccnc3)c3ccccc3Cl)cc2c(Cl)c1-c1ccccc1 (stereo not drawn) [Example 44, [4-Chloro-2-(dimethylamino)-3-phenylquinolin-6-yl](2-chlorophenyl)pyridin-3-ylmethanol•TFA] | 330 | 170 nM | 97 | 550 | – | – |

Other lines, results leading:

| Kd [1] [nM] | IC50 [2] | inhibition at 6 µM [2] [%] | IC50 ([3]; Homo sapiens, CD4+ T, 72 h) [nM] | IC50 [3] [nM] | RORγt reporter Assay, % inhibition @ 6 μM [2] [%] | Structure (SMILES) |
| --- | --- | --- | --- | --- | --- | --- |
| 3.9 | 5.8 nM | 103 | 48 | – | – | COc1cc(C(O)(c2ccc3nc(Cl)c(-c4ccccc4)c(Cl)c3c2)c2cncn2C)ccn1 (stereo not drawn) [Example 68, (2,4-Dichloro-3-phenylquinolin-6-yl)(2-methoxypyridin-4-yl)(1-methyl-1H-imidazol-5-yl)methanol•TFA] |
| 2.3 | 4.9 nM | 100 | 40 | – | – | CCCCN(C)c1nc2ccc(C(O)(c3ccncc3)c3cncn3C)cc2c(Cl)c1-c1ccccc1 (stereo not drawn) [Example 76, {2-[Butyl(methyl)amino]-4-chloro-3-phenylquinolin-6-yl}(1-methyl-1H-imidazol-5-yl)pyridin-4-ylmethanol•TFA] |
| 97 | 140 nM | 98 | 240 | – | – | COC(c1ccncc1)(c1ccc2nc(N(C)C)c(-c3ccccc3)c(Cl)c2c1)c1cncn1C (stereo not drawn) [Example 128, 4-Chloro-6-(methoxy(1-methyl-1H-imidazol-5-yl)(pyridin-4-yl)methyl)-N,N-dimethyl-3-phenylquinolin-2-amine•TFA] |
| 6.2 | 160 nM | 100 | 80 | – | – | COc1ccc(C(O)(c2ccc3nc(Cl)c(-c4ccccc4)c(Cl)c3c2)c2c(C)noc2C)cn1 (stereo not drawn) [Example 129, (2,4-Dichloro-3-phenylquinolin-6-yl)(3,5-dimethylisoxazol-4-yl)(6-methoxypyridin-3-yl)methanol•TFA] |
| 23 | 500 nM | 98 | > 6000 | – | – | CC(=O)N1CCC(C(O)(c2cccnc2)c2ccc3nc(Cl)c(-c4ccccc4)c(Cl)c3c2)CC1 (stereo not drawn) [Example 95, (1-Acetylpiperidin-4-yl)(2,4-dichloro-3-phenylquinolin-6-yl)pyridin-3-ylmethanol•TFA] |
| 1.5 | – | 94 | 7 | – | – | Cn1nncc1C(O)(c1ccc2nc(C(F)(F)F)c(-c3ccccc3)c(C(F)(F)F)c2c1)c1cnnn1C [Example 182, Bis(1-methyl-1H-1,2,3-triazol-5-yl)(3-phenyl-2,4-bis(trifluoromethyl)quinolin-6-yl)methanol] |
| 3.7 | > 6000 nM | – | 1200 | – | 34 | COc1nc2c(C)cc(C(O)(c3ccc(C(F)(F)F)nc3)c3cncn3C)cc2c(Cl)c1-c1ccc(OC(F)(F)F)cc1 (single isomer, unassigned) [Example 183b, (4-Chloro-2-methoxy-8-methyl-3-(4-(trifluoromethoxy)phenyl)quinolin-6-yl)(1-methyl-1H-imidazol-5-yl)(6-(trifluoromethyl)pyridin-3-yl)methanol] |
| 180 | 260 nM | 95 | 2800 | – | – | Oc1ccc(C(O)(c2cccnc2)c2ccc3nc(Cl)c(-c4ccccc4)c(Cl)c3c2)cc1 (stereo not drawn) [Example 29, 4-[(2,4-Dichloro-3-phenylquinolin-6-yl)(hydroxy)pyridin-3-ylmethyl]phenol•HCl] |
| 55 | 25 nM | 89 | 120 | – | – | COc1nc2ccc(C(O)(c3cccnc3)c3cccc(Cl)c3)cc2c(Cl)c1-c1ccccc1 (stereo not drawn) [Example 80, (4-Chloro-2-methoxy-3-phenylquinolin-6-yl)(3-chlorophenyl)pyridin-3-ylmethanol•TFA] |
| 770 | 47 nM | 95 | 630 | – | – | Cc1ccc(C(O)(c2cccc(Cl)c2)c2ccc3nc(Cl)c(-c4ccccc4)c(Cl)c3c2)cn1 (stereo not drawn) [Example 70, (3-Chlorophenyl)(2,4-dichloro-3-phenylquinolin-6-yl)(6-methylpyridin-3-yl)methanol•TFA] |
| 65 | 59 nM | 101 | 39 | – | – | COc1c(-c2ccccc2)c(N(C)C)nc2ccc(C(O)(c3ccncc3)c3cncn3C)cc12 (stereo not drawn) [Example 107, [2-(Dimethylamino)-4-methoxy-3-phenylquinolin-6-yl](1-methyl-1H-imidazol-5-yl)pyridin-4-ylmethanol•TFA] |
| 78 | 170 nM | 104 | 360 | – | – | Cn1cncc1C(O)(c1ccc(Cl)cc1)c1cc2c(Cl)c(-c3ccccc3)c(Cl)nc2cc1F (stereo not drawn) [Example 161, (4-Chlorophenyl)(2,4-dichloro-7-fluoro-3-phenylquinolin-6-yl)(1-methyl-1H-imidazol-5-yl)methanol•TFA] |
